Values of other authors in patent publication US5512561A, “Aryl substituted dibenzoxazepine compounds, pharmaceutical compositions and methods of use” (G. D. Searle & Co., priority 1995, dated 1996).

Tested on: isolated smooth muscle preparations
Conditions: cited from earlier work

Row | Compound | inhibition of the stimulant actions of prostaglandins on isolated smooth muscle preparations
1 | O=C(Cc1ccccc1)NNC(=O)N1Cc2ccccc2Oc2ccc(Cl)cc21 [SC-18637] | inhibit the stimulant actions of prostaglandins
2 | CC(=O)NNC(=O)N1Cc2ccccc2Oc2ccc(Cl)cc21 [SC-19220] | inhibit the stimulant actions of prostaglandins
